# Test results reported in patent US20040038855A1 (priority 1999, published 2004).
# Where two headings read alike, the source gives them in different places.
# Experiments:
# human GALR3 receptor = molecular target: T1, human GALR3 receptor (Homo sapiens, UniProt O60755); experiment: Binding affinity at the human GALR3 receptor; settings: Table 3a; read-out: hGALR3 Ki
# T1 construct: expressed in transfected cells
# T1 sequence (O60755 1-368): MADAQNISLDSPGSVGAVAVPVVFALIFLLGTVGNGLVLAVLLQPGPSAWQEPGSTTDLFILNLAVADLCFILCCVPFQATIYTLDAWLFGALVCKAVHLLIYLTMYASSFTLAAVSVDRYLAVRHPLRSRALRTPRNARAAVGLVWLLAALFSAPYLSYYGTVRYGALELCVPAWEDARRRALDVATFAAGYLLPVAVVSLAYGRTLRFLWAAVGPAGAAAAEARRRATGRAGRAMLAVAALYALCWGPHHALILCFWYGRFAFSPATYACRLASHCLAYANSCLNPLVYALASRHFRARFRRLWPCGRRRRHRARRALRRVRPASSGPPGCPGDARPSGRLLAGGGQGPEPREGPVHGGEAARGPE
# Excerpt: (§1) The design of such compounds can be optimized by determining their binding affinity at the recombinant MCH1, NPY1, NPY2, Gal1, Gal2, Gal3, and 5HT2C receptors. The methods to obtain the cDNA of the receptor, express said receptors in heterologous systems, and carry out assays to determine binding affinity are described in the following publications: human NPY1 (Larhammar et al., 1992), human NPY5 (U.S. Pat. No. 5,602,024, the disclosure of which is hereby incorporated by reference in its entirety into this application), human Gall (Habert-Ortoli et al., 1994), human Gal2 (Smith et al., 1997), human Gal3 (Smith et al., 1998), and rat 5HT2C (Julius et al., 1988). Additionally, the compounds would optimally not bind at the following receptors due to possible side effects: human H1 histamine and human H2 histamine receptors; human alpha-1A adrenergic, human alpha-1D adrenergic, human alpha-2A adrenergic, human alpha-2B adrenergic, and human alpha-2C adrenergic receptors; human dopamine D1, D2, D3, D4, and D5 receptors; the β-adrenoceptor; and the human 5HT1A, human 5HT1B, human 5HT1D, human 5HT1E, human 5HT1F, human 5HT2A, rat 5HT2C, human 5HT4, human 5HT6, and human 5HT7 receptors.
# rat 5HT2C receptor = molecular target: T2, rat 5HT2C receptor (Rattus norvegicus, UniProt P08909); experiment: Binding affinity at the rat 5HT2C receptor; settings: Table 3a; read-out: r5HT2C Ki
# T2 construct: expressed in transfected cells
# T2 sequence (P08909 33-460): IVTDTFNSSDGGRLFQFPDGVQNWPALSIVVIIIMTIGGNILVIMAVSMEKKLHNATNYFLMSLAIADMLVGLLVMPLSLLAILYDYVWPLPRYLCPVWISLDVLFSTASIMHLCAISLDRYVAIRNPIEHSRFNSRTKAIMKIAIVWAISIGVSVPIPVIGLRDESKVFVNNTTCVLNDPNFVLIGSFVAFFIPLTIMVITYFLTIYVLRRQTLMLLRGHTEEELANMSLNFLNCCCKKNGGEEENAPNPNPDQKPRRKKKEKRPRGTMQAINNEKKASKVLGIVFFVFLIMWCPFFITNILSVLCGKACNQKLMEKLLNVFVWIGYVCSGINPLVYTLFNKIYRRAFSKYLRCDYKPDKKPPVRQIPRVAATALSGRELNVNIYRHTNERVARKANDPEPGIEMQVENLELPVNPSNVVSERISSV
# Excerpt: as §1
# Other 5HT Receptors: Other serotonin receptor binding assays were performed according to published methods: rat 5HT2C receptor (Julius et al., 1988); and 5HT6 (Monsma, et al., 1993). The binding assays using the 5HT4 receptor were performed according to the procedures described in U.S. Pat. No. 5,766,879, the disclosure of which is hereby incorporated by reference in its entirety into this application.
# human NPY5 receptor = molecular target: T3, human NPY5 receptor (Homo sapiens, UniProt Q15761); experiment: Binding affinity at the human NPY5 receptor; settings: Table 3a; read-out: hNPY5 Ki
# T3 construct: expressed in transfected cells
# T3 sequence (Q15761 1-445): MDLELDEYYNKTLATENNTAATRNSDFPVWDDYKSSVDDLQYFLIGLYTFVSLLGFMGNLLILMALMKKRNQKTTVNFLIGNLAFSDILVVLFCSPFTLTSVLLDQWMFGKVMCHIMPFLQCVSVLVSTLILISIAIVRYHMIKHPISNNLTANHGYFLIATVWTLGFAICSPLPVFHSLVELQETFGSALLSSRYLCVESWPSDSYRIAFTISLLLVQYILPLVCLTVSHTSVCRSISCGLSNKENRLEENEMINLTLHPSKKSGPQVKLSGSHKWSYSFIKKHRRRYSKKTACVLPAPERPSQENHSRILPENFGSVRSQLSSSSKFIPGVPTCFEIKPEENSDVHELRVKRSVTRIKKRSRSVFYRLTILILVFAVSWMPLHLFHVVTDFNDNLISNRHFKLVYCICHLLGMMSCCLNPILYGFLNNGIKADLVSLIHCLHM
# Excerpt: as §1
# human GALR2 receptor = molecular target: T4, human GALR2 receptor (Homo sapiens, UniProt O43603); experiment: Binding affinity at the human GALR2 receptor; settings: Table 3a; read-out: hGALR2 Ki
# T4 construct: expressed in transfected cells
# T4 sequence (O43603 1-387): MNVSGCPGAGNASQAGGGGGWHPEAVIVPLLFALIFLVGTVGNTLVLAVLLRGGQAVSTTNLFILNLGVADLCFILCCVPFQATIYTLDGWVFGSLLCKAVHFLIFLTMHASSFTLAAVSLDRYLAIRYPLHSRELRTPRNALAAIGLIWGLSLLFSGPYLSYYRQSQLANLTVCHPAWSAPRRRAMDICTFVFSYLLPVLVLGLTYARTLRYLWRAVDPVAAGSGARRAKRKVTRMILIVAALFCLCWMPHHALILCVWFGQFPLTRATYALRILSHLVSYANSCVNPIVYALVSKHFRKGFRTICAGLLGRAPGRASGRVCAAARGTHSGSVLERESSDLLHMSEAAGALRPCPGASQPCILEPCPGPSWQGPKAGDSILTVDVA
# Excerpt: as §1
# human GALR1 receptor = molecular target: T5, human GALR1 receptor (Homo sapiens, UniProt P47211); experiment: Binding affinity at the human GALR1 receptor; settings: Table 3a; read-out: hGALR1 Ki
# T5 construct: expressed in transfected cells
# T5 sequence (P47211 1-349): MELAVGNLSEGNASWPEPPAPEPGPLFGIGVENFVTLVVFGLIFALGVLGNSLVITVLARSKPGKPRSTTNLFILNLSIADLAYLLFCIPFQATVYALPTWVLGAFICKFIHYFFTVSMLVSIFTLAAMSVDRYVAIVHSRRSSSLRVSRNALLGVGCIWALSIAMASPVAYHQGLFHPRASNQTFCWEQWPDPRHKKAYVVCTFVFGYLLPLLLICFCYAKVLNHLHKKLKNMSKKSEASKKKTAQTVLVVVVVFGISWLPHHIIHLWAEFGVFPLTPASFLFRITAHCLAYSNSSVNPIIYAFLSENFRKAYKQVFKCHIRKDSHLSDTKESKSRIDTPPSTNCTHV
# Excerpt: as §1
# [1] = molecular target: T6, human Alpha-1a Adrenergic receptor (Homo sapiens, UniProt P35348); experiment: Binding affinity at the human alpha-1A adrenergic receptor; settings: Table 3c; read-out: hAlpha-1a Ki
# T6 construct: expressed in transfected cells
# T6 sequence (P35348 1-466): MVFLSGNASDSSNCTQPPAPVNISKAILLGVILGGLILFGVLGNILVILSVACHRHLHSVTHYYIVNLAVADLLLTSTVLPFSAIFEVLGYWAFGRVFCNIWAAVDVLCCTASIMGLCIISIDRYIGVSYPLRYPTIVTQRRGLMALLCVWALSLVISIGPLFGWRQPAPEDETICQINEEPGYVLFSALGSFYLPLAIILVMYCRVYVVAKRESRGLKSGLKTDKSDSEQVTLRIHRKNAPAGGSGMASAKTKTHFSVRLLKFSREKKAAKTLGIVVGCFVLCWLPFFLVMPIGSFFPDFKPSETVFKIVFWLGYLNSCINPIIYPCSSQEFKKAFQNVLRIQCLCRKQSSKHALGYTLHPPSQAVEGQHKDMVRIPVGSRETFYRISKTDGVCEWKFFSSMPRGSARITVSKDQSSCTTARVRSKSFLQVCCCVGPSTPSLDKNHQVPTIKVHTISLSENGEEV
# Outline: (§2)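 Receptor binding read-out throughout; membranes expressing human D1 or D2 receptor were used for those two targets.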
# [2] = molecular target: T7, human Dopamine D2 receptor (Homo sapiens, UniProt P14416); experiment: Binding affinity at the human dopamine D2 receptor; settings: Table 3c; read-out: hD2 Ki
# T7 construct: purchased BioSignal, Inc. (Montreal, Canada)
# T7 sequence (P14416 whole entry): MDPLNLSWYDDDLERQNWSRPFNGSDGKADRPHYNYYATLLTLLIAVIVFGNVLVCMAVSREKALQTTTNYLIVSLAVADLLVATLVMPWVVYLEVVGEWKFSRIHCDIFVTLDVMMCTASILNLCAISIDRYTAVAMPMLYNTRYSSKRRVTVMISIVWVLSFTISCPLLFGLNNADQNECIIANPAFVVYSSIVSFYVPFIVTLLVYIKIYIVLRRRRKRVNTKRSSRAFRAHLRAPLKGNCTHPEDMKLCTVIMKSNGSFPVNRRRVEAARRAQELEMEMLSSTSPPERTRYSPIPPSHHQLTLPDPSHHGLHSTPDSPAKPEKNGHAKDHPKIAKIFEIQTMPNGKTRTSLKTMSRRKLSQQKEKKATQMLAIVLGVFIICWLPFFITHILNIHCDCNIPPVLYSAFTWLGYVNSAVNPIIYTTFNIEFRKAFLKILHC
# Outline: as §2
# rat MCH1 receptor = molecular target: T8, rat MCH1 receptor (Rattus norvegicus, UniProt P97639); experiment: Binding affinity (Ki) at the rat MCH1 receptor
# T8 construct: expressed in transfected cells
# T8 sequence (P97639 whole entry): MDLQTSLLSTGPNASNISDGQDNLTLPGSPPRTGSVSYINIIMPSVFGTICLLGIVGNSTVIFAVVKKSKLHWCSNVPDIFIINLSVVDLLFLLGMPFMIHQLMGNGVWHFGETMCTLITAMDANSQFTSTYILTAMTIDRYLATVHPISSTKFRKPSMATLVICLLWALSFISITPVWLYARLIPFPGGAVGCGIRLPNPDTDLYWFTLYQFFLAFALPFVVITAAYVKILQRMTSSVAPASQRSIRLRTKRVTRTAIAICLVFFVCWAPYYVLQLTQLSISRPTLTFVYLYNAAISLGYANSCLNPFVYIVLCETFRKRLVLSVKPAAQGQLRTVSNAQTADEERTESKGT
# [3] = molecular target: T9, human Histamine H1 receptor (Homo sapiens, UniProt P35367); experiment: Binding affinity at the human histamine H1 receptor; settings: Table 3c; read-out: hH1 Ki
# T9 construct: expressed in transfected cells
# T9 sequence (P35367 whole entry): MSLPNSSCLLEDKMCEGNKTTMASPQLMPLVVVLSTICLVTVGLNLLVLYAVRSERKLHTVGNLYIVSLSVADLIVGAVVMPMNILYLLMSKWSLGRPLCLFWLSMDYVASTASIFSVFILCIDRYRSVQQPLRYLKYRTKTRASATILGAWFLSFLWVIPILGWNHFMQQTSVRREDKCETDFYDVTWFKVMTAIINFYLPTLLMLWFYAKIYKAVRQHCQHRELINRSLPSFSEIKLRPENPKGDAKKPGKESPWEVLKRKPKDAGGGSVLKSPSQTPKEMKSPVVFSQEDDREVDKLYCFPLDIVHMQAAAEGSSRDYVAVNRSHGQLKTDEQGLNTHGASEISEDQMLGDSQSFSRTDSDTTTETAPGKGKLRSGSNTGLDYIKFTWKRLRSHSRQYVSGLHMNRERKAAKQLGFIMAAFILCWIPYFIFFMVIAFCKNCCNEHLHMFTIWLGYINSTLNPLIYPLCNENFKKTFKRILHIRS
# Outline: as §2
# [4] = Examples 38-141, read-out: Ki (nM) rMCH1
Ki (human GALR3 receptor) [nM],Ki (rat 5HT2C receptor) [nM],Ki (human NPY5 receptor) [nM],Ki (human GALR2 receptor) [nM],Ki (human GALR1 receptor) [nM],Ki [1] [nM],Ki [2] [nM],Ki (rat MCH1 receptor; [4]) [nM],"Ki (rat MCH1 receptor; Table 3c, read-out: rMCH1 Ki) [nM]",Ki [3] [nM],Compound
> 50000,41000,> 50000,> 50000,> 50000,,,,,,CCN1c2ccc(/C=C3\SC(=S)NC3=O)cc2C(C)=CC1(C)C [Example 25]
> 50000,34100,> 50000,> 50000,> 50000,,,,,,"O=C(CCCN1CCC(NC(=O)c2ccccc2)CC1)c1ccc(Cl)cc1 [Example 28, [3-(4-CHLOROBENZOYL)]PROPYL-4-BENZAMIDOPIPERIDINE]"
,,,,,204,66,9.3,9.3,329,CC(C)C(=O)Nc1cccc(C2CCN(CC[C@@H](Oc3cccc(Cl)c3)c3ccccc3)CC2)c1 [Example 124]
,,,,,232,46.6,32.5,32.5,> 50000,CC(C)C(=O)Nc1cccc(C2CCN(CC[C@H](OC(=O)c3cccc4ccccc34)c3ccccc3)CC2)c1 [Example 125]
,,,,,1520,1050,50,50,8000,CC(=O)c1ccccc1O[C@@H](CCN1CCC(c2cccc(NC(=O)C(C)C)c2)CC1)c1ccccc1 [Example 126]
,,,,,226,119,6.6,6.6,1710,CC(C)C(=O)Nc1cccc(C2CCN(CC[C@H](Oc3ccccc3F)c3ccccc3)CC2)c1 [Example 127]
,,,,,645,41500,31.4,31.4,33100,CC(=O)Nc1cccc(C2CCN(CCCNC(=O)N3C(=O)OC[C@@H]3c3cc(F)cc(F)c3)CC2)c1 [Example 128]
,,,,,381,41500,22.3,22.3,6520,CC(=O)Nc1cccc(C2CCN(CCCNC(=O)N3C(=O)OC[C@@H]3c3cc(F)c(F)c(F)c3)CC2)c1 [Example 129]
,,,,,333,39500,48.6,48.6,1860,CC(=O)Nc1cccc(C2CCN(CCCNC(=O)N3C(=O)OC(C)(C)C3c3ccc(F)c(F)c3)CC2)c1 (stereo not drawn) [Example 130]
,,,,,2470,19000,11.8,11.8,2840,CC(=O)Nc1cccc(C2CCN(CCCNC(=O)N3C(=O)O[C@H](C)C3c3ccc(F)c(F)c3)CC2)c1 (stereo partly drawn) [Example 131]
,,,,,11000,41500,44.6,44.6,39700,CC(=O)Nc1cccc(C2CCN(CCCNC(=O)N3C(=O)OCC3Cc3ccc(F)cc3)CC2)c1 (stereo not drawn) [Example 132]
,,,,,167,447,25.7,25.7,4180,CC(C)C(=O)Nc1cccc(C2CCN(CC[C@@H](Oc3ccccc3[N+](=O)[O-])c3ccccc3)CC2)c1 [Example 133]
,,,,,722,244,19.4,19.4,507,CC(C)C(=O)Nc1cccc(C2CCN(CC[C@@H](Oc3cccc([N+](=O)[O-])c3)c3ccccc3)CC2)c1 [Example 135]
,,,,,620,833,14.3,14.3,9790,CCOc1ccccc1O[C@@H](CCN1CCC(c2cccc(NC(=O)C(C)C)c2)CC1)c1ccccc1 [Example 136]
,,,,,3020,2450,3.2,3.2,3820,CC(=O)c1cccc(O[C@@H](CCN2CCC(c3cccc(NC(=O)C(C)C)c3)CC2)c2ccccc2)c1 [Example 141]
